# Results: US20250136652A1, “FUSION PROTEIN FOR TARGETING RECOMBINANT PROTEINS FOR DEGRADATION” (The Regents of the University of California, priority 2022, published 2025)
# Tested on: synthetic drug-inducible transcription factor (SynTF) fused to a SynZip
# Assay: STUD negative feedback circuit regulating SynTF in Jurkat T cells, GFP reporter
# Assay type: cell-based
# Settings: GZV 72 hours at 37 C
# From the text: FIG. 6A: STUDs can be composed into negative feedback circuit to regulate synthetic transcription factor (SynTF). Cartoon diagram of plasmids used in negative feedback circuit transduced into Jurkat T cells. Synthetic transcription factors used in this work (grey) are made up of a transcriptional activation domain (AD) and a DNA binding domain (DBD) separated by a NS3 protease. In the absence of the NS3 inhibitor grazoprevir (GZV), the TF is destabilized and non-functional. On the other hand, the addition of GZV stabilizes the TF and allows for transcription of the gene cassette downstream of the SynTF promoter (pSynTF). Three types of circuits were designed: (1) A negative feedback circuit that has the SynTF driving expression of the GFP reporter and the STUD which results in degradation of the SynTF and shut off the circuit. […]
# The circuit has three components: (1) a synthetic drug-inducible transcription factor (SynTF) fused to a SynZip, (2) a GFP reporter, and (3) a SynZip STUD that targets the SynTF (FIG. 6A). […] After incubation, we assay for GFP fluorescence by flow cytometry and gate on cells expressing the co-transduction markers (mCherry and tagBFP) for both plasmids relative to a untransduced control. […]
substance,measurement,value
"SynZip STUD: Fusion protein SEQ ID NO: 413: lysine-free modified synZIP18 heterodimerization domain, flexible linker, C-terminal RRRG degron; 55 amino acids (SIAATLENDLARLENENARLERDIANLERDLARLEREEAYFGSGSGSGSGSRRRG)",inhibition of SynTF (fold change of median GFP relative to DMSO),inhibits the SynTF
